Data published in EP0051819A2, “Tetra-substituted benzene derivatives, their preparation and pharmaceutical preparations containing them” (F. HOFFMANN-LA ROCHE & CO. Aktiengesellschaft, priority 1980, dated 1982).
Values after ≈ are worked out from the molar mass of the structure shown. Where two headings read alike, the source gives them in different places.

How the values were obtained:
Rhinovirus HGP = experiment: Antiviral activity: inhibition of viral cytopathogenic effect (C.P.E.) in HeLa cell culture; assay type: cell-based; settings: for IC50: Enterovirus, HeLa, 48 h; for antivirale Aktivität: qualitative statement in the description, no virus named
Description: (§1) Eine Suspension von HeLa-Zellen (6 x 10^4) wurde mit Rhinovirus HGP (3 x 10^3 Plaque-bildende Einheiten, PFU) gemischt und auf eine Mikrotestplatte gebracht, die die zu testenden Verbindungen in zunehmender Verdünnung enthielten. Die Zellen wurden dann in Eagle's Minimalnährlösung, die 2% Kalbsserum, 1% Tryptosephosphatbrühe, 100 ug/ml Streptomycin und 20 Einheiten/ml Penicillin G enthielt, kultiviert. Der virale zytopathogenische Effekt (C.P.E.) und die Cytotoxizität wurden mikroskopisch nach 2 Tagen Kultivierung bei 33°C beobachtet. Die antivirale Aktivität (IC50) der Testverbindungen ist diejenige Konzentration,.bei der C.P.E. um 50% gegenüber der Kontrollkultur gehemmt war. Die Cytotoxizität ist als Minimalkonzentration angegeben, bei der toxische Symptome beobachtet wurden.(cytotoxische Dosis).

[1] = Cytotoxicity in HeLa cells, observed microscopically in the antiviral test; assay type: cell-based; settings: human, hela cells
Description: as §1

[2] = concentration inhibiting C.P.E. by 50% versus control culture, HeLa cells, 2 days at 33°C, read-out: IC50
[3] = minimal concentration at which toxic symptoms were observed (cytotoxische Dosis), 2 days at 33°C, read-out: Cytotoxizität

SMILES	IC50 (Rhinovirus HGP; [2]) [µg/mL]	MCC at 48 h [1, 3] [µg/mL]	IC50 (Rhinovirus HGP) [µg/mL]	antivirale Aktivität (Rhinovirus HGP)	MCC at 48 h [1] [µg/mL]
COc1cc(O)c(C(=O)NCc2ccc3c(c2)OCO3)c(OC)c1 [2-Hydroxy-4,6-dimethoxy-N-(m,p--methylenedioxybenzyl)benzamid]	0.003 to 0.01 (≈ 0.00905 to 0.0302 µM)	> 8			
COc1cc(O)c(C(=O)NCc2ccco2)c(OC)c1 [N-Furfuryl-2-hydroxy-4,6--dimethoxybenzamid]	0.03 to 0.1 (≈ 0.108 to 0.361 µM)	> 8			
COc1ccc(CCC(=NO)c2c(O)cc(OC)cc2OC)cc1 [1-(2-Hydroxy--4,6-dimethoxyphenyl)-3-(4-methoxyphenyl)-1-propanon-oxim]		> 10			
COc1ccc(CNC(=O)c2c(OC)cc(OC)cc2OP(=O)(O)O)cc1 [2-[(p-Anisylamino)carbonyl]-3,5-dimethoxyphenyl-dihydrogenphosphat]		> 8	0.006 to 0.01 (≈ 0.0151 to 0.0252 µM)		
COc1cc(O)c(C(=O)NCc2ccc(Cl)cc2)c(OC)c1 [N-(p-Chlorobenzyl)-2-hydroxy--4,6-dimethoxybenzamid]	0.01 to 0.03 (≈ 0.0311 to 0.0932 µM)	> 2.4			
CCCOc1cc(OC)c(C(=O)NCc2ccc(OC)cc2)c(OP(=O)([O-])[O-])c1.[Na+].[Na+] [Dinatrium 2-[(p-anisylamino)carbonyl]-3-methoxy-5-propoxyphenylphosphat]		> 200	0.01 to 0.02	besonders starke antivirale Aktivität	
CCOc1cc(OC)c(C(=O)NCc2ccc(OC)cc2)c(OP(=O)(O)O)c1 [2--[(p-Anisylamino)carbonyl]-5-ethoxy-3-methoxyphenyl-dihydrogenphosphat]		> 8	0.01 to 0.03 (≈ 0.0243 to 0.0729 µM)	besonders starke antivirale Aktivität	
COc1cc(O)c(C(=O)NCc2ccc(OC)c(OC)c2)c(OC)c1 [2-Hydroxy-4,6-dimethoxy-N--(m,p-dimethoxybenzyl)benzamid]	0.3 (≈ 0.864 µM)	8			
COc1cc(O)c(C(=O)NCC2CCCS2)c(OC)c1 (stereo not shown) [2-Hydroxy-4,6-dimethoxy-N--(tetrahydro-2-thenyl)benzamid]	0.004 to 0.01 (≈ 0.0135 to 0.0336 µM)	8			
CCCCCCCCCCCCCCCCCC(=O)Oc1cc(OC)cc(OC)c1C(=O)NCc1ccc(OC)cc1 [2-[(p-Anisylamino)carbonyl]-3,5-dimethoxyphenyl-octadecanoat]	0.3 to 0.9 (≈ 0.514 to 1.54 µM)	> 8			
COc1cc(O)c(C(=O)NCc2ccc(O)cc2)c(OC)c1 [2-Hydroxy-N-(p-hydroxybenzyl)--4,6-dimethoxybenzamid]	0.3 (≈ 0.989 µM)	> 8			
COc1cc(O)c(C(=O)CCc2ccc(C)o2)c(OC)c1 [1-(2-Hydroxy-4,6-dimethoxyphenyl)-3-(5-methyl-2-furyl)-l-propanon]	0.9 (≈ 3.1 µM)	> 8			
COc1cc(O)c(C(=O)NCc2ccc[nH]2)c(OC)c1 [2-Hydroxy-4,6-dimethoxy-N-(2-pyrrolylmethyl)benzamid]	2.7 (≈ 9.77 µM)	> 8			
COc1cc(O)c(C(=O)NCc2cccs2)c(OC)c1 [2-Hydroxy-4,6-dimethoxy-N-(2--thenyl)benzamid]	0.03 (≈ 0.102 µM)	8			
C=CCOc1ccc(CNC(=O)c2c(OC)cc(OC)cc2OC(=O)CCCCCCCCCCCCCCCCC)cc1 [2-{[[p-(Allyloxy)benzyl]amino]carbonyl}-3,5-dimethoxyphenyl-octadecanoat]	0.3 (≈ 0.492 µM)	> 8			
CCCCOc1ccc(CNC(=O)c2c(O)cc(OC)cc2OC)cc1 [N-(p-Butoxybenzyl)-2-hydroxy--4,6-dimethoxybenzamid]	0.3 (≈ 0.835 µM)	8			
COc1cc(O)c(C(=O)NCc2ccc(C)cc2)c(OC)c1 [2-Hydroxy-4,6-dimethoxy-N-(p--methylbenzyl)benzamid]	0.01 to 0.03 (≈ 0.0332 to 0.0996 µM)	8			
COc1cc(O)c(C(=O)NCc2ccc(N(C)C)cc2)c(OC)c1 [N-[p-(Dimethylamino)benzyl]-2--hydroxy-4,6-dimethoxybenzamid]	0.01 (≈ 0.0303 µM)	> 8			
CCOc1cc(OC)c(C(=O)CCc2ccc(OC)cc2)c(OP(=O)(O)O)c1 [5-Ethoxy-3-methoxy-2-[3-(4-methoxyphenyl)propionyl]phenyldihydrogenphosphat]		> 10	0.3 to 0.8 (≈ 0.731 to 1.95 µM)		
COc1cc(O)c(C(=O)NCc2ccncc2)c(OC)c1 [2-Hydroxy-4,6-dimethoxy-N-[(4-pyridyl)methyl]benzamid]	0.9 (≈ 3.12 µM)	8			
C=CCOc1ccc(CNC(=O)c2c(OC)cc(OC)cc2OC(=O)c2ccccc2)cc1 [2-{[[p-(Allyloxy)benzyl]amino]carbonyl}-3,5-dimethoxyphenyl-benzoat]	0.002 (≈ 0.00447 µM)	2.7		besonders starke antivirale Aktivität	

Now from value to compound, other results behind:

IC50 (Rhinovirus HGP; [2]) [µg/mL]	SMILES	MCC at 48 h [1, 3] [µg/mL]	IC50 (Rhinovirus HGP) [µg/mL]	antivirale Aktivität (Rhinovirus HGP)	MCC at 48 h [1] [µg/mL]
0.1 (≈ 0.312 µM)	COc1cc(O)c(C(=O)CCc2ccc(Cl)cc2)c(OC)c1 [3-(4-Chlorophenyl)-1-(2-hydroxy--4,6-dimethoxyphenyl)-1--propanon]	10			
0.001 (≈ 0.00269 µM)	CCOc1cc(OC)c(C(=O)CCc2ccc(OC)cc2)c(OC(C)=O)c1 [5-Ethoxy-3-methoxy-2-[3-(4-methoxyphenyl)-propionyl]phenyl-acetat]	> 8			
0.9 (≈ 1.51 µM)	CCCCCCCCCCCCCCCCCC(=O)Oc1cc(OCC)cc(OC)c1C(=O)CCc1ccc(OC)cc1 [5-Ethoxy-3-methoxy-2-[3-(4-methoxyphenyl)propionyl]phenyl-octadecanoat]	> 8			
0.002 (≈ 0.00582 µM)	C=CCOc1cc(O)c(C(=O)NCc2ccc(OC)cc2)c(OC)c1 [4-(Allyloxy)-2-hydroxy-6-methoxy-N-(p-methoxybenzyl)benzamid]	> 8		besonders starke antivirale Aktivität	
0.01 to 0.03 (≈ 0.0303 to 0.0908 µM)	COc1ccc(C(=O)CC(=O)c2c(O)cc(OC)cc2OC)cc1 [1-(2-Hydroxy-4,6-dimethoxyphenyl)-3-(4-methoxyphenyl)-1,3-propandion]	8			
0.01 to 0.03 (≈ 0.0303 to 0.0908 µM)	CCOc1cc(OC)cc(O)c1C(=O)CCc1ccc(OC)cc1 [1-(2-Ethoxy-6-hydroxy-4--methoxyphenyl)-3-(4-methoxy-phenyl)-1-propanon]	0.9			
0.01 (≈ 0.023 µM)	CCOc1cc(OC)c(C(=O)CCc2ccc(OC)cc2)c(OC(=O)c2ccccc2)c1 [5-Ethoxy-3-methoxy-2-[3-(4-methoxyphenyl)propionyl]phenyl-benzoat]	> 8			
0.01 (≈ 0.0291 µM)	C=CCOc1ccc(CNC(=O)c2c(O)cc(OC)cc2OC)cc1 [N-[p-(Allyloxy)benzyl]-2-hydroxy-4,6-dimethoxybenzamid]	8			
2.7 (≈ 5.48 µM)	CCOc1cc(OC)c(C(=O)CCc2ccc(OC)cc2)c(O[C@@H]2O[C@H](CO)[C@@H](O)[C@H](O)[C@H]2O)c1 [5-Ethoxy-3-methoxy-2-[3-(4-methoxyphenyl)propionyl]phenyl-ß-D-glucopyranosid]	> 10			
2.7 (≈ 5.63 µM)	COc1ccc(CNC(=O)c2c(OC)cc(OC)cc2O[C@@H]2O[C@H](CO)[C@@H](O)[C@H](O)[C@H]2O)cc1 [2-[(p-Anisyl-amino)carbonyl]-3,5-dimethoxyphenyl-ß-D-glucopyranosid]	> 10			
0.002 (≈ 0.00577 µM)	CCOc1cc(O)c(C(=S)CCc2ccc(OC)cc2)c(OC)c1 [1-(4-Ethoxy-2-hydroxy-6-methoxyphenyl)-3-(4-methoxyphenyl)-1-propanthion]			besonders starke antivirale Aktivität	2.7
0.004 to 0.01 (≈ 0.0116 to 0.029 µM)	CCCOc1cc(O)c(C(=O)CCc2ccc(OC)cc2)c(OC)c1 [1-(2-Hydroxy-6-methoxy-4-propoxyphenyl)-3-(4-methoxyphenyl)-1-propanon]	2.7			
0.03 to 0.1 (≈ 0.0989 to 0.33 µM)	COc1ccc(NC(=O)c2c(O)cc(OC)cc2OC)cc1 [2-Hydroxy-4,6-dimethoxy-N-(4--methoxyphenyl)benzamid]	> 10			
0.01 to 0.03 (≈ 0.0301 to 0.0902 µM)	COc1cc(O)c(C(=O)CCc2ccc(SC)cc2)c(OC)c1 [1-(2-Hydroxy-4,6-dimethoxy-phenyl)-3-[4-(methylthio)-phenyl]-1-propanon]	8			
0.1 (≈ 0.301 µM)	COc1ccc(CCC(=O)c2c(O)cc(SC)cc2OC)cc1 [1-[2-Hydroxy-6-methoxy-4-(methylthio)-phenyl]-3-(4-methoxyphenyl)-1-propanon]	1			
2.7 (≈ 4.17 µM)	COc1ccc(CNC(=O)c2c(OC)cc(OC)cc2O[C@@H]2O[C@H](COC(C)=O)[C@@H](OC(C)=O)[C@H](OC(C)=O)[C@H]2OC(C)=O)cc1 [2-[(p-Anisylamino)carbonyl]-3,5-dimethoxyphenyl-tetra-O-acetyl-ß-D-glucopyranosid]	> 10			
0.03 to 0.1 (≈ 0.0871 to 0.29 µM)	COc1ccc(CCC(=O)c2c(O)cc(OC(C)C)cc2OC)cc1 [1-(2-Hydroxy-4-isopropoxy-6-methoxyphenyl)-3-(4-methoxyphenyl)-1-propanon]	8			
0.002 (≈ 0.00497 µM)	CCOC(=O)Oc1cc(OCC)cc(OC)c1C(=O)CCc1ccc(OC)cc1 [5-Ethoxy-3-methoxy-2-[3-(4-methoxyphenyl)propionyl]-phenyl-ethylcarbonat]	8		besonders starke antivirale Aktivität	
0.001 to 0.002 (≈ 0.00269 to 0.00538 µM)	COc1ccc(CNC(=O)c2c(O)cc(OCC=C(C)C)cc2OC)cc1 [2-Hydroxy-6-methoxy-4-(3-methyl-2-butenyloxy)-N-(p-methoxybenzyl)benzamid]	> 8		besonders starke antivirale Aktivität	
0.01 (≈ 0.0288 µM)	CCOc1cc(O)c(C(=S)NCc2ccc(OC)cc2)c(OC)c1 [4-Ethoxy-2-hydroxy-6-methoxy-N-(p-methoxybenzyl)-thiobenzamid]	> 8			
